Source: paper PMC7450057, “Enhancing intracellular accumulation and target engagement of PROTACs with reversible covalent chemistry” (Nature Communications, 2020)
Values joined by “and” are separate entries in the source; they are usually repeats but may differ in a detail not shown here. Equal values may be shown once.

Experiments:
[1] = target: truncated Cereblon protein (Homo sapiens, UniProt Q96SW2); test: CRBN binding assay (fluorescence quenching); conditions: for Fluorescence Intensity: Supplementary Figure 11, replicates
Experimental: The Kd values of compounds to CRBN were measured based on fluorescence quenching after compounds binding to CRBN. […] All the compounds were dissolved in DMSO (10 mM) as stock solutions. The final drug concentration is 100 nM. […] Fluorescence intensity values for control wells (assay buffer only) were subtracted from each data point prior to analysis. The Kd was calculated using GraphPad Prism with the following equation curve fit. I=I0−If×Kd/P0+Kd+If

BTK = BTK (Homo sapiens, UniProt Q06187); test: In vitro BTK kinase assay (PhosphoSens); format: biochemical; set-up: purchased SignalChem B10-10H-10
NanoLuc-CRBN fusion = target: T1, NanoLuc-CRBN fusion (Homo sapiens, UniProt Q96SW2); test: NanoBRET CRBN in-cell target engagement assay; format: cell-based; conditions: for NanoBRET(%): Figure 3b
T1 construct: host or cells: HEK 293T/17
In short: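 Live cells expressing NanoLuc-CRBN with tracer and compound were incubated 2 h, then given Nano-Glo substrate plus extracellular NanoLuc inhibitor for 3 min at room temperature.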

full-length BTK protein = target: T2, full-length BTK protein (Homo sapiens, UniProt Q06187); test: BTK binding assay (Kd, Eurofins DiscoverX)
T2 construct: Kd was measured using the full-length BTK protein by Eurofins DiscoverX; T7 phage fusion or DNA tag for qPCR (generic vendor protocol); purchased Eurofins DiscoverX
In short: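 Competition binding of DNA-tagged full-length BTK (T7 phage or HEK-293 produced) against immobilised ligand on blocked beads, with the remaining kinase quantified by qPCR. An 11-point 3-fold compound dilution was tested at 1% final DMSO. Kd came from a Hill fit with slope fixed at −1.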

T1 sequence (Q96SW2 whole entry, the tested form may be a part): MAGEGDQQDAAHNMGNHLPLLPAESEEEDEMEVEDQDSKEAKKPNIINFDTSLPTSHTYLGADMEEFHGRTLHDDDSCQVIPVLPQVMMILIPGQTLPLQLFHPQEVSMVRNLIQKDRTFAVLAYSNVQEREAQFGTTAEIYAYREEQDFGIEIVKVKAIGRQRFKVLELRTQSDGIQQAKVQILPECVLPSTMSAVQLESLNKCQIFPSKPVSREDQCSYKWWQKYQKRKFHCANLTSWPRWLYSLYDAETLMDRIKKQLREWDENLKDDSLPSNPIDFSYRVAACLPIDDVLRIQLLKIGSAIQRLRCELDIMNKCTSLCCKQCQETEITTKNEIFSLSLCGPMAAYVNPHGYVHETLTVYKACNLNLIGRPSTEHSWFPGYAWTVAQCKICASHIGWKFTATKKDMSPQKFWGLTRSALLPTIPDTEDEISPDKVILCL
T1 sequence (Q16531 whole entry partner, the tested form may be a part): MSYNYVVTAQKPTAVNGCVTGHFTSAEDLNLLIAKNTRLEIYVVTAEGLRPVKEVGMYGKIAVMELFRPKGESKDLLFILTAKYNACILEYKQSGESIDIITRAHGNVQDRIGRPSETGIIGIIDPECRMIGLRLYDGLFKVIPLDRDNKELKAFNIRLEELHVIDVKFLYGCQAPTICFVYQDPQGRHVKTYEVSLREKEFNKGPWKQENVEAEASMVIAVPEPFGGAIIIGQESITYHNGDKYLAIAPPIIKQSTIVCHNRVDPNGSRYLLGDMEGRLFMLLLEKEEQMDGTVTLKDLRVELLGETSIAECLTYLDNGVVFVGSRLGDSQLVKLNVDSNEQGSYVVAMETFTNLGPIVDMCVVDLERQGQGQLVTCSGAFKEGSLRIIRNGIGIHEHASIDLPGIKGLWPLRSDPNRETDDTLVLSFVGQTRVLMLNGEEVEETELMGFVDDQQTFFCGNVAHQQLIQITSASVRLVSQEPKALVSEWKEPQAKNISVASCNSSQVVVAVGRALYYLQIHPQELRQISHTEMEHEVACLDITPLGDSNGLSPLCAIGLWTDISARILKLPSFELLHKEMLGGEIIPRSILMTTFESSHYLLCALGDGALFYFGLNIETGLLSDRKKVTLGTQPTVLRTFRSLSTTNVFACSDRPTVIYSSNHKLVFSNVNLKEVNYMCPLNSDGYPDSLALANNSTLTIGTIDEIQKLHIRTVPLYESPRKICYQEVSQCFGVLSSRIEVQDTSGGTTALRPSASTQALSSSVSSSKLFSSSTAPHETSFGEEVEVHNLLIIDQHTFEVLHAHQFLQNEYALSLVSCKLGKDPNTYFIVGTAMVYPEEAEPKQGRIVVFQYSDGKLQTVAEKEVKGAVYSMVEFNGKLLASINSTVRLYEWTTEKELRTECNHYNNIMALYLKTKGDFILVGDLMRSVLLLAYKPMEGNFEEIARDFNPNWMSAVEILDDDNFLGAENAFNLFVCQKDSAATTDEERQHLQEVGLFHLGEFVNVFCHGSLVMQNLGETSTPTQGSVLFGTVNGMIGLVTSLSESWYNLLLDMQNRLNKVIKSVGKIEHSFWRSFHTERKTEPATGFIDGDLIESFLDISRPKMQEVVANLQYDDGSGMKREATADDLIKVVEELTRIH
Chain of truncated Cereblon protein (Q96SW2 318-426): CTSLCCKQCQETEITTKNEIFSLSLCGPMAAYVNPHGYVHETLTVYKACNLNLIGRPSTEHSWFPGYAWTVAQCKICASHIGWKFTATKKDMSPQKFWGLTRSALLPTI
T2 sequence (Q06187 whole entry, the tested form may be a part): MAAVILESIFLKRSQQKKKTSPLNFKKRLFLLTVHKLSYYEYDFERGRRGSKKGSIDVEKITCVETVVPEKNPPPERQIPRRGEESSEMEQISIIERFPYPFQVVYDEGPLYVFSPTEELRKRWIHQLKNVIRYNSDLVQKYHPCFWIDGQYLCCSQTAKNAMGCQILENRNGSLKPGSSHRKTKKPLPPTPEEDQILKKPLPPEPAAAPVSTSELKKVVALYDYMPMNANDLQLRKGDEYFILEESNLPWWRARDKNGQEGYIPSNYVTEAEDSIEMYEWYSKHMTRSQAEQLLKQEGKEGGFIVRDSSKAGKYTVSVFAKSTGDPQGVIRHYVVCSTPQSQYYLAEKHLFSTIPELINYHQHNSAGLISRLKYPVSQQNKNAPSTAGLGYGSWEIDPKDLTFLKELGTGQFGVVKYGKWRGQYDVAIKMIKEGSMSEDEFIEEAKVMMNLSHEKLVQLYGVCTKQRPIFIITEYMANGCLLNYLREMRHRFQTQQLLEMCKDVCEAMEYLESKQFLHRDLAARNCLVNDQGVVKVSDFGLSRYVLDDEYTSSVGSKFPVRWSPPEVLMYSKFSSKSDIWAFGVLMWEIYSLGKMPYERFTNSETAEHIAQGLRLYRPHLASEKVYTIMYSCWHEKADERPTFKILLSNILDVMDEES
Chain of BTK (Q06187 whole entry, the tested form may be a part): as above

Fluorescence Intensity ([1]; CRBN 0 μM): 2486.8 and 2886.8 and 2579.8
Fluorescence Intensity ([1]; CRBN 0.734375 μM): 2242.8 and 2235.8 and 2132.8
Fluorescence Intensity ([1]; CRBN 1.46875 μM): 2244.8 and 1962.8 and 1899.8
Fluorescence Intensity ([1]; CRBN 2.9375 μM): 1778.8 and 1742.8 and 1730.8
Fluorescence Intensity ([1]; CRBN 5.875 μM): 1389.8 and 1303.8 and 1288.8
Fluorescence Intensity ([1]; CRBN 11.75 μM): 1034.8 and 1140.8 and 1274.8
Fluorescence Intensity ([1]; CRBN 23.5 μM): 1293.8 and 1294.8 and 1588.8
Kd ([1]; truncated Cereblon protein, fluorescence quenching, triplicates, read-out: Kd): 1800 nM
IC50 (BTK; AssayQuant BTK assay kit, 2.5 nM BTK, 1 mM ATP, duplicates, read-out: BTK inhibition IC50): 21.2 nM
activity at 2.56 pM (BTK; Supplementary Figure 5, drug concentration 2.56 pM, replicates, read-out: Inhibition(%)): 87.5%
activity at 12.8 pM (BTK; Supplementary Figure 5, drug concentration 12.8 pM, replicates, read-out: Inhibition(%)): 93%
activity at 64 pM (BTK; Supplementary Figure 5, drug concentration 64 pM, replicates, read-out: Inhibition(%)): 88%
activity at 0.00032 µM (BTK; Supplementary Figure 5, drug concentration 320 pM, replicates, read-out: Inhibition(%)): 96.2%
activity at 0.0016 µM (BTK; Supplementary Figure 5, drug concentration 1600 pM, replicates, read-out: Inhibition(%)): 83.6%
activity at 0.008 µM (BTK; Supplementary Figure 5, drug concentration 8000 pM, replicates, read-out: Inhibition(%)): 71.7%
activity at 0.04 µM (BTK; Supplementary Figure 5, drug concentration 40000 pM, replicates, read-out: Inhibition(%)): 32.2%
activity at 0.2 µM (BTK; Supplementary Figure 5, drug concentration 200000 pM, replicates, read-out: Inhibition(%)): 14%
activity at 1 µM (BTK; Supplementary Figure 5, drug concentration 1000000 pM, replicates, read-out: Inhibition(%)): 4.94%
diminished BTK inhibitory activity compared with corresponding warhead control (BTK; ratio of IC50 values): < 3 fold
NanoBRET(%) (NanoLuc-CRBN fusion; 1.60E-08 M, triplicates): 102.085% and 102.001%
NanoBRET(%) (NanoLuc-CRBN fusion; 2.00E-06 M, triplicates): 49.8083% and 51.4483% and 59.2693%
NanoBRET(%) (NanoLuc-CRBN fusion; 3.20E-09 M, triplicates): 100.05% and 108.808% and 104.469%
NanoBRET(%) (NanoLuc-CRBN fusion; 4.00E-07 M, triplicates): 67.9857% and 66.2855% and 79.0983%
NanoBRET(%) (NanoLuc-CRBN fusion; 8.00E-08 M, triplicates): 74.8615% and 82.1247%
IC50 (NanoLuc-CRBN fusion; HEK-293 cells, CRBN tracer 0.5 µM, triplicates, read-out: CRBN target engagement IC50,TE): 1690 nM
K′P,D (relative intracellular accumulation coefficient) (NanoLuc-CRBN fusion; Kd (CRBN)/IC50,TE (CRBN)): 1.1
intracellular accumulation of RC-1 relative to the compound (NanoLuc-CRBN fusion; from K′P,D values, CRBN (Table 2)): 16 fold
CRBN target engagement IC50 relative to that of RC-1 (NanoLuc-CRBN fusion; ratio compound/RC-1): 7 fold
Signal (full-length BTK protein; BTK_+DTT, compound concentration 0.0457 nM): 1.67E-05 and 2.04E-05
Signal (full-length BTK protein; BTK_+DTT, compound concentration 0.137 nM): 2.07E-05
Signal (full-length BTK protein; BTK_+DTT, compound concentration 0.412 nM): 1.78E-05 and 1.97E-05
Signal (full-length BTK protein; BTK_+DTT, compound concentration 1.23 nM): 1.66E-05 and 1.94E-05
Signal (full-length BTK protein; BTK_+DTT, compound concentration 3.7 nM): 9.43E-06 and 1.17E-05
Signal (full-length BTK protein; BTK_+DTT, compound concentration 11.1 nM): 5.40E-06 and 5.82E-06
Signal (full-length BTK protein; BTK_+DTT, compound concentration 33.3 nM): 1.59E-06 and 1.81E-06
Signal (full-length BTK protein; BTK_+DTT, compound concentration 100 nM): 4.37E-07 and 5.02E-07
Signal (full-length BTK protein; BTK_+DTT, compound concentration 300 nM): 2.01E-07 and 2.30E-07
Signal (full-length BTK protein; BTK_+DTT, compound concentration 900 nM): 1.47E-07 and 2.72E-07
Signal (full-length BTK protein; BTK_+DTT, compound concentration 2700 nM): 1.45E-07 and 2.02E-07
Signal (full-length BTK protein; BTK_-DTT, compound concentration 0.137 nM): 2.06E-05
Kd (full-length BTK protein; full-length BTK, standard assay buffer in the presence of DTT (6 mM) (DiMe compounds: BTK_+DTT per Supplementary Data 1), duplicates): 4.7 nM
SMILES: CN(CCCNC(=O)CNc1cccc2c1C(=O)N(C1CCC(=O)NC1=O)C2=O)CCCC(=O)N1CCCC(n2nc(-c3ccc(Oc4ccccc4)cc3)c3c(N)ncnc32)C1 (centres unmarked) [RNC-1]
